In patent US10155754B2, “Substituted 2-imino-1,3-thiazolidin-4-ones as N-arachidonoylethanolamine cellular uptake inhibitors” (UNIVERSITAT BERN, priority 2014, dated 2018) one finds IC50 data, which are given here for 38 compounds.

Each structure is given as a SMILES string.

In the first experiment the test system is AEA cellular uptake (U937 cells). Description: [3H]-AEA cellular uptake inhibition in U937 cells. The class given is cell-based. To be noted: Homo sapiens, U-937, U937 cells, final 100 nM AEA with 0.5 nM [3H]-AEA, 15 min at 37° C.; read-out: AEA uptake IC50. The protocol: [^3H]-AEA Cellular Uptake
Screening for AEA cellular uptake inhibition was performed in a semi-automated procedure: Pipetting and washing steps were performed by a Biomek3000 laboratory workstation. First, required amounts of U937 cells were centrifuged at 100×g for 5 min and resuspended in RPMI (37° C.) to a final concentration of 2×10^6 cells/mL. Then, 250 μL of cell suspension (0.5×10^6 cells per sample) were transferred into AquaSil™ silanized glass vials (Chromacol 1.1-MTV) in 96-well format. After addition of 5 μL vehicle (DMSO) or compounds the cells were incubated at 37° C. for 15 min. As positive controls OMDM-2 and UCM707 were used at 10 μM in each run. The ETI-T compounds were measured at up to 7 concentrations in triplicates from 100 pM-100 μM. After pre-incubation, a mixture of 0.5 nM [ethanolamine-1-^3H]-AEA, (60 Ci/mmol) and 99.5 nM of cold AEA (final 100 nM) was added and samples were incubated at 37° C. for another 15 min. The reaction was stopped by rapid filtration over UniFilter-96 GF/C filters (PerkinElmer) pre-soaked with PBS 0.25% BSA. Cells were washed three times with 100 μL ice-cold PBS buffer containing 1% fatty acid free BSA. After drying, 45 μL MicroScint 20 scintillation cocktail (PerkinElmer, Waltham, Mass., US) was added to the wells and the plate was sealed. Radioactivity was measured by liquid scintillation counting on a PerkinElmer Wallac Trilux MicroBeta 1450 during 2 min. Non-specific binding of [^3H]AEA (100 nM) to the glass vials was never higher than 10%. IC50 values were calculated by GraphPad® by non-linear regression using the built-in log(inhibitor) vs. response-variable slope (four parameters) function.
With `CC(C)(C)c1ccc(C/N=C2\S/C(=C\c3ccc(CO)cc3)C(=O)N2c2ccccc2)cc1` [22_R_N, (2Z,5Z)-5-(4-(hydroxymethyl)benzylidene)-2-(4-tert-butylbenzylimino)-3-phenylthiazolidin-4-one], the half-maximal inhibitory concentration (IC50) (as a rule, the midpoint of a concentration-inhibition curve) was determined as 5.18 µM. Same read-out and setting: the result for `O=C1/C(=C/c2ccc(CO)cc2)S/C(=N\Cc2ccccc2Cl)N1c1ccccc1` [22_T_N, (2Z,5Z)-2-(2-chlorobenzylimino)-5-(4-(hydroxymethyl)benzylidene)-3-phenylthiazolidin-4-one] reads over 10 µM; that for `O=C1/C(=C/c2ccc(CO)cc2)S/C(=N\CCc2ccccc2)N1c1ccccc1` [22_U_N, (2Z,5Z)-5-(4-(hydroxymethyl)benzylidene)-2-(phenethylimino)-3-phenylthiazolidin-4-one], 0.812 µM; that for `CC(C)CN1C(=O)/C(=C/c2ccccc2)S/C1=N\c1ccc(F)cc1` [23_B_X, (2Z,5Z)-2-(4-fluorophenylimino)-5-benzylidene-3-isobutylthiazolidin-4-one], 1.13 µM. On the same count and under the same terms, the result for `CCCCN1C(=O)/C(=C/c2ccccc2)S/C1=N\Cc1ccccc1` [23_C_G, (2Z,5Z)-5-benzylidene-2-(benzylimino)-3-butylthiazolidin-4-one] reads 0.753 µM; that for `O=C1/C(=C/c2ccccc2)S/C(=N\Cc2ccccc2)N1CCc1ccccc1` [23_C_O, (2Z,5Z)-5-benzylidene-2-(benzylimino)-3-phenethylthiazolidin-4-one], 1.19 µM.

`O=C1/C(=C/c2ccccc2)S/C(=N\c2ccccc2)N1CCCc1ccccc1` [23_N_K, (2Z,5Z)-5-benzylidene-2-(phenylimino)-3-(3-phenylpropyl)thiazolidin-4-one]: the IC50 is 1.12 µM.

As to `COc1ccc(C/N=C2\S/C(=C\c3ccccc3)C(=O)N2c2ccccc2)cc1` [23_Q_N, (2Z,5Z)-2-(4-methoxybenzylimino)-5-benzylidene-3-phenylthiazolidin-4-one], the half-inhibitory concentration (IC50) came to 0.598 µM.

As for `O=C1/C(=C/c2ccccc2)S/C(=N\Cc2ccccc2Cl)N1c1ccccc1` [23_T_N, (2Z,5Z)-2-(2-chlorobenzylimino)-5-benzylidene-3-phenylthiazolidin-4-one], the concentration for half-maximal inhibition (IC50) was 0.556 µM. On the same count and under the same terms, with `Cc1ccc(/N=C2\S/C(=C\c3ccc4c(c3)OCCO4)C(=O)N2c2ccc(F)cc2)cc1` [24_A_B, (2Z,5Z)-5-(2,3-dihydro-1,4-benzodioxin-6-ylmethylene)-3-(4-fluorophenyl)-2-(p-tolylimino)thiazolidin-4-one] the figure was 0.138 µM; with `Cc1ccc(/N=C2\S/C(=C\c3ccc4c(c3)OCCO4)C(=O)N2c2ccc(Cl)cc2)cc1` [24_A_L, (2Z,5Z)-2-(p-tolylimino)-3-(4-chlorophenyl)-5-((2,3-dihydrobenzo[b][1,4]dioxin-6-yl)methylene)thiazolidin-4-one], 0.616 µM; with `Cc1ccc(/N=C2\S/C(=C\c3ccc4c(c3)OCCO4)C(=O)N2c2ccccc2)cc1` [24_A_N, (2Z,5Z)-2-(p-tolylimino)-5-((2,3-dihydrobenzo[b][1,4]dioxin-6-yl)methylene)-3-phenylthiazolidin-4-one], 1.51 µM. Still for that read-out and setting: the result for `Cc1ccc(/N=C2\S/C(=C\c3ccc4c(c3)OCCO4)C(=O)N2CC(C)C)cc1` [24_A_X, (2Z,5Z)-2-(p-tolylimino)-5-((2,3-dihydrobenzo[b][1,4]dioxin-6-yl)methylene)-3-isobutylthiazolidin-4-one] reads 0.721 µM. On the same count and under the same terms, with `Cc1ccc(N2C(=O)/C(=C/c3ccc4c(c3)OCCO4)S/C2=N\c2ccc(F)cc2)cc1` [24_B_A, (2Z,5Z)-2-(4-fluorophenylimino)-5-((2,3-dihydrobenzo[b][1,4]dioxin-6-yl)methylene)-3-p-tolylthiazolidin-4-one] the figure was 0.176 µM; with `O=C1/C(=C/c2ccc3c(c2)OCCO3)S/C(=N\c2ccc(F)cc2)N1c1ccc(Cl)cc1` [24_B_L, (2Z,5Z)-2-(4-fluorophenylimino)-3-(4-chlorophenyl)-5-((2,3-dihydrobenzo[b][1,4]dioxin-6-yl)methylene)thiazolidin-4-one], 0.663 µM. For `O=C1/C(=C/c2ccc3c(c2)OCCO3)S/C(=N\c2ccc(F)cc2)N1c1ccccc1` [24_B_N, (2Z,5Z)-2-(4-fluorophenylimino)-5-((2,3-dihydrobenzo[b][1,4]dioxin-6-yl)methylene)-3-phenylthiazolidin-4-one], the IC50 is 0.419 µM. Same read-out and setting: the result for `O=C1/C(=C/c2ccc3c(c2)OCCO3)S/C(=N\CCCc2ccccc2)N1c1ccccc1` [24_K_N, (2Z,5Z)-2-(3-phenylpropylimino)-5-((2,3-dihydrobenzo[b][1,4]dioxin-7-yl)methylene)-3-phenylthiazolidin-4-one] reads 1.62 µM. Same read-out and setting: the result for `O=C1/C(=C/c2ccc3c(c2)OCCO3)S/C(=N\Cc2cccnc2)N1c1ccccc1` [24_S_N, (2Z,5Z)-2-((pyridin-3-yl)methylimino)-5-((2,3-dihydrobenzo[b][1,4]dioxin-7-yl)methylene)-3-phenylthiazolidin-4-one] reads 1.43 µM; that for `Cc1ccc(N2C(=O)/C(=C/c3ccc4[nH]cnc4c3)S/C2=N\c2ccc(F)cc2)cc1` [32_B_A, (2Z,5Z)-5-((1H-benzo[d]imidazol-5-yl)methylene)-2-(4-fluorophenylimino)-3-p-tolylthiazolidin-4-one], 0.632 µM; that for `CC(C)CN1C(=O)/C(=C/c2ccc3ncsc3c2)S/C1=N\c1ccc(F)cc1` [32_B_X, (2Z,5Z)-2-(4-fluorophenylimino)-5-((benzo[d]thiazol-6-yl)methylene)-3-isobutylthiazolidin-4-one], 0.993 µM.

In the case of `O=C1/C(=C/c2ccc3[nH]ccc3c2)S/C(=N\c2ccccc2)N1c1ccccc1` [compound 03, (2Z,5Z)-5-((1H-indol-5-yl)methylene)-3-phenyl-2-(phenylimino)thiazolidin-4-one], the concentration for half-maximal inhibition (IC50) was determined as 0.731 µM. On the same count and under the same terms, with `COCc1cccc(/C=C2\S/C(=N\c3ccccc3)N(c3ccccc3)C2=O)c1` [compound 15, (2Z,5Z)-5-(3-(methoxymethyl)benzylidene)-3-phenyl-2-(phenylimino)thiazolidin-4-one] the figure was 1.03 µM; with `O=C1/C(=C/c2ccc(CO)cc2)S/C(=N\c2ccccc2)N1c1ccccc1` [compound 22, (2Z,5Z)-5-(4-(hydroxymethyl)benzylidene)-3-phenyl-2-(phenylimino)thiazolidin-4-one], 0.729 µM. Regarding `Cn1ncc2cc(/C=C3\S/C(=N\c4ccccc4)N(c4ccccc4)C3=O)ccc21` [compound 28, (2Z,5Z)-5-((1-methyl-1H-indazol-5-yl)methylene)-3-phenyl-2-(phenylimino)thiazolidin-4-one], the concentration for half-maximal inhibition (IC50) amounted to 0.515 µM. Same read-out and setting: the result for `COCc1ccc(/C=C2\S/C(=N\c3ccccc3)N(c3ccccc3)C2=O)cc1` [compound 34, (2Z,5Z)-5-(4-(methoxymethyl)benzylidene)-3-phenyl-2-(phenylimino)thiazolidin-4-one] reads over 10 µM.

Still in this experiment, the particulars now being: Homo sapiens, U-937, U937 cells, final 100 nM AEA with 0.5 nM [3H]-AEA, 15 min at 37° C.; read-out: AEA uptake inhibition IC50.
On to `O=C1/C(=C/c2ccc3[nH]ccc3c2)S/C(=N\c2ccccc2)N1c1ccccc1` [drawing 108], for which the 50% inhibitory concentration (IC50) was 0.731 µM. The same measure, in the same setting: with `O=C1/C(=C/c2ccc3[nH]cnc3c2)S/C(=N\c2ccccc2)N1c1ccccc1` [drawing 109] the figure was 0.194 µM; with `COCc1cccc(/C=C2\S/C(=N\c3ccccc3)N(c3ccccc3)C2=O)c1` [drawing 117], 1 µM.

Turning to `O=C1/C(=C/c2ccc3c(c2)OCCO3)S/C(=N\c2ccccc2)N1c1ccccc1` [drawing 119], the concentration for half-maximal inhibition (IC50) turned out to be 0.817 µM. Still for that read-out and setting: the result for `O=C1/C(=C/c2ccc(CO)cc2)S/C(=N\c2ccccc2)N1c1ccccc1` [drawing 121] reads 0.729 µM; that for `Cn1ncc2cc(/C=C3\S/C(=N\c4ccccc4)N(c4ccccc4)C3=O)ccc21` [drawing 126], 0.515 µM; that for `O=C1/C(=C/c2ccc3ncsc3c2)S/C(=N\c2ccccc2)N1c1ccccc1` [drawing 129], 0.291 µM. Take `O=C1/C(=C/c2ccccc2)S/C(=N\Cc2ccccc2)N1c1ccccc1` [drawing 130]: the IC50 was 0.18 µM. On the same count and under the same terms, the result for `O=C1/C(=C/c2ccc3c(c2)OCCO3)S/C(=N\Cc2ccccc2)N1c1ccccc1` [drawing 133] reads 0.17 µM.

With `COCc1cccc(/C=C2\S/C(=N\Cc3ccccc3)N(c3ccccc3)C2=O)c1` [drawing 139], the IC50 was 1.69 µM.

Turning to `COc1ccc(/N=C2\S/C(=C\c3ccc(CO)cc3)C(=O)N2c2ccccc2)cc1` [drawing 140], the IC50 came out at 0.135 µM. On the same count and under the same terms, the result for `Cc1ccc(/N=C2\S/C(=C\c3ccc(CO)cc3)C(=O)N2c2ccccc2)cc1` [drawing 141] reads 0.111 µM.

The experiment is the same for the next values; noted with them: U937 cells, final 100 nM AEA with 0.5 nM [3H]-AEA, 15 min at 37° C.; read-out: AEA uptake IC50.
`CCCCCCCCCCCCN1C(=O)/C(=C/c2ccc(CO)cc2)S/C1=N\c1ccc(F)cc1` [23_A_V, (2Z,5Z)-5-(4-(hydroxymethyl)benzylidene)-2-(4-fluorophenylimino)-3-dodecylthiazolidin-4-one]: the IC50 stood at 10.5 µM.
